Assay results: PubChem BioAssay AID2525 (Broad Institute, 2010)
Activity calls are given as the source filed them.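 The calls were made as follows: active = EC50 at most tenfold above the top concentration tested; inconclusive = flat fit with activity between 30% and 70%, or invalid fit; inactive = EC50 beyond tenfold above the top concentration.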

System: S. cerevisiae SKY197-pL101 polyadenylation reporter, beta-gal luminescence, 9 h
Assay: polyadenylation inhibitors in yeast reporter, dose response, luminescence, S. cerevisiae SKY197-pL101 (AID 2525)

`Nc1ncnc2c1ncn2C1OC(CO)CC1O` (stereo unspecified) was tested, and the EC50 was > 50 µM (inactive).
